Experimental data reported in patent US4621076A, “Pharmaceutical composition useful for inhibiting platelet aggregation” (Meito Sangyo Kabushiki Kaisha, priority 1982, dated 1986).
Structures can show the parent of a compound that is named as a salt.

Key:
[1] = tested on: thrombin-induced platelet aggregation; test: Inhibitory effect on thrombin-induced platelet aggregation in vitro, Table 2; format: cell-based, human (healthy person)
Experimental: Blood was drawn from the cubital vein of a healthy person with a care taken to avoid congestion. […] 0.1 ml of a solution of 5'-GMP sodium salt in each of the concentrations shown in Table 1 below was added to 0.7 ml of PRP, and then each of the various platelet aggregation inducing agents shown in Table 1 was added. Changes in absorbance were measured by an aggregometer (made by Evans Company), and the rate of platelet aggregation inhibition was calculated from the following equation.
The same experiment as in (1) above was carried out except that […] of thrombin was used as a platelet aggregation inducing agent.

[2] = tested on: platelet aggregation; settings: cited from earlier work
[3] = tested on: thrombin-induced platelet aggregation; test: Thrombin-induced platelet aggregation (inventors' test of 5'-GDP); format: cell-based; settings: tests conducted by the present inventors
[4] = tested on: 5'-ADP-induced platelet aggregation; settings: at high concentrations; cited from earlier work
[5] = tested on: platelet aggregation (thrombin-induced); test: Inhibitory effect on platelet aggregation in humans in vivo (thrombin added to PRP); parameters: species or system human (healthy persons); settings: for Rate of platelet aggregation inhibition (%): five healthy persons, oral one gram
Experimental: (4) Inhibitory effect on platelet aggregation in humans in vivo:
One gram of 5'-GMP (sodium salt) was administered orally to each of five healthy persons, and blood was drawn from them after a predetermined period of time. One part by volume of a 3.8% aqueous solution of sodium citrate was added to 9 parts by volume of the blood, and the mixture was centrifuged at room temperature for 10 minutes at 1,000 rpm to obtain platelet-rich plasma (PRP). 0.1 ml of a thrombin solution (0.75 u/ml) was added to 0.7 ml of PRP, and changes in absorbance were measured by an aggregometer (made by Evans Company).

[6] = Acute toxicity in mice (Litchfield-Wilcoxon); parameters: species or system mouse (ddY-strain); settings: mouse, in vivo, ddY mice, parentheses: 95% reliability limits
Experimental: The acute toxicity of the compound of formula (I) in accordance with this invention was examined.
The test compound (guanosine 5'-monophosphate sodium salt) was dissolved in physiological saline, and the solution was administered to ddY-strain mice (body weight 20 to 25 g) intravenously or orally.
The parenthesized figures show 95% reliability limits.

[7] = tested on: platelet aggregation induced by thrombin; test: Inhibition of thrombin-induced platelet aggregation in vitro, Table 1 (method of Born, human PRP, aggregometer); format: cell-based, human (healthy person)
Experimental: (§1) (1) Inhibitory effect of GMP on platelet aggregation induced by various platelet aggregation inducing substances:
(§2) The inhibitory effect was measured by the method of Born (J. Physiol., vol. 168, p. 178, 1963).
(§3) Blood was drawn from the cubital vein of a healthy person with a care taken to avoid congestion. One part by volume of a 3.8% sodium citrate solution was added to 9 parts by volume of the blood, and the mixture was centrifuged at 1,000 rpm for 10 minutes at room temperature to obtain platelet-rich plasma (PRP). 0.1 ml of a solution of 5'-GMP sodium salt in each of the concentrations shown in Table 1 below was added to 0.7 ml of PRP, and then each of the various platelet aggregation inducing agents shown in Table 1 was added. Changes in absorbance were measured by an aggregometer (made by Evans Company), and the rate of platelet aggregation inhibition was calculated from the following equation.

[8] = tested on: platelet aggregation induced by collagen; test: Inhibition of collagen-induced platelet aggregation in vitro (method of Born, human PRP, aggregometer); format: cell-based, human (healthy person); settings: collagen 5.5 γ/ml, read-out: Rate of inhibition (%)
Experimental: as §1, §2, §3

[9] = tested on: platelet aggregation induced by norepinephrine; test: Inhibition of norepinephrine-induced platelet aggregation in vitro (method of Born, human PRP, aggregometer); format: cell-based, human (healthy person); settings: norepinephrine 55.5 γ/ml, sample 1.00 mg/ml, read-out: Rate of inhibition (%)
Experimental: as §1, §2, §3

[10] = tested on: platelet aggregation induced by arachidonic acid; test: Inhibition of arachidonic acid-induced platelet aggregation in vitro (method of Born, human PRP, aggregometer); format: cell-based, human (healthy person); settings: arachidonic acid 55.5 γ/ml, read-out: Rate of inhibition (%)
Experimental: as §1, §2, §3

[11] = tested on: platelet aggregation; test: Relation between dose of GMP and aggregation inhibiting effect in rabbits in vivo; settings: rabbit, one hour after administration
Experimental: (§4) 5'-GMP sodium salt was administered to rabbits intravenously in a dose of 50 mg/kg or orally in a dose of 1 g/kg. After a predetermined period of time (30 seconds to 4 minutes in the case of intravenous injection, and 1 to 5 hours in oral administration), blood was drawn from the animals. One part by volume of a 3.8% solution of sodium citrate was added to 9 parts by volume of the blood, and the mixture was centrifuged at 1,000 rpm at room temperature for 10 minutes to obtain platelet-rich plasma (PRP). 0.1 ml of a thrombin solution (0.75 u/ml) was added to 0.7 ml of PRP, and then changes in absorbance were measured by an aggregometer (made by Evans Company).
(2) Relation between the dose of GMP and the aggregation inhibiting effect.
Using rabbits, the dose response of the platelet aggregation inhibiting activity of 5'-GMP (sodium salt) in vivo was examined. 5'-GMP (sodium salt) was orally administered to the rabbits, and blood was drawn from the animals one hour after the administration. PRP was prepared in the same way as in section (1) above. The degree of platelet aggregation inhibition was measured by an aggregometer.

[12] = tested on: platelet aggregation (thrombin-induced); test: Duration of the platelet aggregation inhibiting effect in vivo in rabbits (thrombin added to PRP); settings: rabbit
Experimental: (3) Inhibitory effect on platelet aggregation in vivo:
(1) Duration of the aggregation inhibiting effect.
as §4

[13] = tested on: platelet aggregation induced by 5'-ADP; test: Inhibition of 5'-ADP-induced platelet aggregation in vitro (method of Born, human PRP, aggregometer); format: cell-based, human (healthy person); settings: 5'-ADP 55.5 γ/ml, read-out: Rate of inhibition (%)
Experimental: as §1, §2, §3

[14] = tested on: platelet aggregation induced by various platelet aggregation inducing substances; test: Inhibition of platelet aggregation induced by various platelet aggregation inducing substances; format: cell-based, human (healthy person); settings: Table 1
Experimental: as §1, §2, §3

Nc1nc2c(ncn2[C@@H]2O[C@H](CO)[C@@H](OP(=O)(O)O)[C@H]2O)c(=O)[nH]1 [3'-GMP (sodium salt), Guanosine 3'-monophosphate]
inhibition at 2000 µg/mL ([1]; Homo sapiens, Platelet, thrombin 0.25 μ/ml, compound 2.0 mg/ml, read-out: Inhibition rate (%)): 87% | Inhibition rate (%) ([1]; thrombin 0.25 μ/ml, compound 2.0 mg/ml): 80%

Nc1ncnc2c1ncn2[C@@H]1O[C@H](COP(=O)(O)OP(=O)(O)O)[C@@H](O)[C@H]1O [5'-ADP, adenosine 5'-diphosphate]
action on platelet aggregation [2]: promoting platelet aggregation

Nc1ncnc2c1ncn2[C@@H]1O[C@H](COP(=O)(O)O)[C@@H](O)[C@H]1O [5'-AMP, adenosine 5'-monophosphate]
action on platelet aggregation [2]: weak action of inhibiting platelet aggregation

Nc1nc2c(ncn2[C@@H]2O[C@H](COP(=O)(O)OP(=O)(O)O)[C@@H](O)[C@H]2O)c(=O)[nH]1 [5'-GDP, guanosine 5'-diphosphate]
inhibitory action on thrombin-induced platelet aggregation [3]: no inhibitory action on thrombin-induced platelet aggregation | inhibitory action on 5'-ADP-induced platelet aggregation [4]: inhibitory action on 5'-ADP-induced platelet aggregation

Nc1nc2c(ncn2[C@@H]2O[C@H](COP(=O)([O-])[O-])[C@@H](O)[C@H]2O)c(=O)[nH]1.[Na+].[Na+] [5'-GMP (sodium salt), guanosine 5'-monophosphate sodium salt]
Rate of platelet aggregation inhibition (%) ([5]; 1.5 hours): 63% | Rate of platelet aggregation inhibition (%) ([5]; 3 hours): 75% | Rate of platelet aggregation inhibition (%) ([5]; 4.5 hours): 62% | LD50 at 72 h ([6]; iv): 3350 mg/kg | LD50 at 72 h ([6]; po): 14800 mg/kg | inhibition at 100 µg/mL ([7]; Homo sapiens, Platelet, read-out: Rate of inhibition (%)): 66% | inhibition at 1000 µg/mL (stock) ([7]; Homo sapiens, Platelet, thrombin 0.5 μ/ml, sample 1.0 mg/ml, read-out: Rate of inhibition (%)): 80% | inhibition at 10000 µg/mL (stock) ([7]; Homo sapiens, Platelet, thrombin 0.5 μ/ml, sample 10.0 mg/ml, read-out: Rate of inhibition (%)): 89% | inhibition at 100 µg/mL (stock) ([8]; sample 0.10 mg/ml): 10% | inhibition at 1000 µg/mL (stock) ([8]; sample 1.00 mg/ml): 10% | inhibition at 500 µg/mL ([1]; Homo sapiens, Platelet, read-out: Inhibition rate (%), thrombin 0.25 μ/ml, compound 0.5 mg/ml): 75% | inhibition at 1000 µg/mL ([1]; Homo sapiens, Platelet, thrombin 0.25 μ/ml, compound 1.0 mg/ml, read-out: Inhibition rate (%)): 81% | inhibition at 1000 µg/mL (stock) [9]: 8% | inhibition at 10 µg/mL (stock) ([10]; sample 0.01 mg/ml): 22% | inhibition at 1000 µg/mL (stock) ([10]; sample 1.00 mg/ml): 40% | Rate of platelet aggregation inhibition (%) ([11]; oral 0.5 g/kg): 38.8% | Rate of platelet aggregation inhibition (%) ([11]; oral 1.0 g/kg): 61.0% | Rate of platelet aggregation inhibition (%) ([11]; oral 1.5 g/kg): 75.2% | Rate of platelet aggregation inhibition (%) ([11]; oral 2.0 g/kg): 80.3% | Rate of platelet aggregation inhibition (%) ([11]; oral 3.0 g/kg): 100% | Rate of platelet aggregation inhibition (%) ([12]; iv 50 mg/kg, 30 seconds): 94% | Rate of platelet aggregation inhibition (%) ([12]; iv 50 mg/kg, 60 seconds): 93% | Rate of platelet aggregation inhibition (%) ([12]; iv 50 mg/kg, 90 seconds): 59% | Rate of platelet aggregation inhibition (%) ([12]; iv 50 mg/kg, 120 seconds): 60% | Rate of platelet aggregation inhibition (%) ([12]; iv 50 mg/kg, 180 seconds): 62% | Rate of platelet aggregation inhibition (%) ([12]; iv 50 mg/kg, 240 seconds): 27% | Rate of platelet aggregation inhibition (%) ([12]; oral 1 g/kg, 1 hour): 95% | Rate of platelet aggregation inhibition (%) ([12]; oral 1 g/kg, 2 hours): 95% | Rate of platelet aggregation inhibition (%) ([12]; oral 1 g/kg, 3 hours): 93% | Rate of platelet aggregation inhibition (%) ([12]; oral 1 g/kg, 4 hours): 93% | Rate of platelet aggregation inhibition (%) ([12]; oral 1 g/kg, 5 hours): 83% | inhibition at 100 µg/mL (stock) ([13]; sample 0.10 mg/ml): 3% | inhibition at 1000 µg/mL (stock) ([13]; sample 1.00 mg/ml): 10%

Nc1nc2c(ncn2[C@@H]2O[C@H](COP(=O)(O)O)[C@@H](O)[C@H]2O)c(=O)[nH]1 [5'-GMP, Guanosine 5'-monophosphate]
duration of effect ([5]; humans, oral administration): ≥ 4.5 h | effect against thrombin-induced aggregation ([7]; Table 1): especially effective against thrombin-induced aggregation | inhibitory effect on aggregation inducing agents [14]: shows an inhibitory effect on all of the aggregation inducing agents tested | duration of effect ([12]; oral administration): ≥ 5 h | inhibition of platelet aggregation ([12]; oral administration): marked inhibition of platelet aggregation
